Measurements taken from ChEMBL document CHEMBL3885861, “Open TG-GATES”.

Organism: Rattus norvegicus
Assay: Open TG-GATES - Regimen: Single
Assay type: toxicity, organism-based, Sprague-Dawley
Set-up: regimen Single, gender Male, age 6 weeks
Conditions: in vivo, po, 20 mg/kg, route gavage, dose level Low; for APTT / Bas / Eos / Fbg / Hb / Ht / Lym / MCH / MCHC / MCV / Mono / Neu / PT / Plat / RBC / Ret / WBC: tissue Blood; for KIDNEY_TOTAL: tissue Kidney; for LIVER: tissue Liver; for A/G / ALP / ALT / AST / BUN / CRE / Ca / Cl / DBIL / GLC / IP / K / LDH / Na / PL / RALB / TBIL / TC / TG / TP / gamma-GTP: tissue Plasma

CN(CCOc1ccc(CC2SC(=O)NC2=O)cc1)c1ccccn1.O=C(O)/C=C\C(=O)O (configuration not stated) [ROSIGLITAZONE MALEATE]
TERMINAL_BW (3 h): 211.2 g | APTT (3 h): 16 s | Bas (3 h): 0% | Eos (3 h): 0.6% | Fbg (3 h): 208.6 mg/dL | Hb (3 h): 13.1 g/dL | Ht (3 h): 39.8% | Lym (3 h): 75.6% | MCH (3 h): 21.5 pg | MCHC (3 h): 32.9% | MCV (3 h): 65.3 fL | Mono (3 h): 9.2% | Neu (3 h): 14.2% | PT (3 h): 12.2 s | Plat (3 h): 111.6 x10_4/uL | RBC (3 h): 609 x10_4/ul | Ret (3 h): 8.8% | WBC (3 h): 102 x10_2/uL | KIDNEY_TOTAL (3 h): 0.8 g | LIVER (3 h): 10.3 g | A/G (3 h): 2.1 | ALP (3 h): 1342 IU/L | ALT (3 h): 38.8 IU/L | AST (3 h): 70.4 IU/L | BUN (3 h): 13.2 mg/dL | CRE (3 h): 0.4 mg/dL | Ca (3 h): 11.2 mg/dL | Cl (3 h): 103.2 meq/L | DBIL (3 h): 0.016 mg/dL | GLC (3 h): 179.2 mg/dL | IP (3 h): 8.4 mg/dL | K (3 h): 4.3 meq/L | LDH (3 h): 104 IU/L | Na (3 h): 139.6 meq/L | PL (3 h): 151.2 mg/dL | RALB (3 h): 3.6 g/dL | TBIL (3 h): 0.052 mg/dL | TC (3 h): 84.4 mg/dL | TG (3 h): 113.4 mg/dL | TP (3 h): 5.4 g/dL | gamma-GTP (3 h): 0.6 IU/L | TERMINAL_BW (6 h): 199.3 g | APTT (6 h): 16.4 s | Bas (6 h): 0% | Eos (6 h): 0.8% | Fbg (6 h): 208.8 mg/dL | Hb (6 h): 13.1 g/dL | Ht (6 h): 39.8% | Lym (6 h): 78% | MCH (6 h): 21.3 pg | MCHC (6 h): 32.8% | MCV (6 h): 64.9 fL | Mono (6 h): 6.4% | Neu (6 h): 15.2% | PT (6 h): 12.1 s | Plat (6 h): 118.2 x10_4/uL | RBC (6 h): 614.6 x10_4/ul | Ret (6 h): 8.5% | WBC (6 h): 114.2 x10_2/uL | KIDNEY_TOTAL (6 h): 0.7 g | LIVER (6 h): 8.7 g | A/G (6 h): 2.5 | ALP (6 h): 1335.2 IU/L | ALT (6 h): 37 IU/L | AST (6 h): 73 IU/L | BUN (6 h): 9.2 mg/dL | CRE (6 h): 0.4 mg/dL | Ca (6 h): 11.1 mg/dL | Cl (6 h): 103.6 meq/L | DBIL (6 h): 0.014 mg/dL | GLC (6 h): 184.6 mg/dL | IP (6 h): 9.6 mg/dL | K (6 h): 4.3 meq/L | LDH (6 h): 72.8 IU/L | Na (6 h): 138.2 meq/L | PL (6 h): 135.2 mg/dL | RALB (6 h): 3.7 g/dL | TBIL (6 h): 0.048 mg/dL | TC (6 h): 82.4 mg/dL | TG (6 h): 73.8 mg/dL | TP (6 h): 5.2 g/dL | gamma-GTP (6 h): 0.8 IU/L
